According to patent US20160214958A1, “COMPOUNDS AND USE FOR TREATING CANCER” (GLIONOVA AB, priority 2013, published 2016):
pEC50: −log10 of the molar value.

Assays:
human fibroblasts = assay: Viability (ATP) of fibroblasts in presence of S10; assay type: cell-based; conditions: Fibroblast
Protocol: The ability of Examples S1-S23 to selectively induce cytotoxicity in glioma/glioblastoma cancer cells or glioma/glioblastoma cancer stem cells was determined by quantification of ATP production in glioma stem cell line U3013 in the presence of using CellTiterGlo reagent (Promega). Cells were exposed to compound in serial dilution in the range 1 nM to 50 µM for 24 hours and viability assessed with respect to negative control (dmso, no cell death) and positive control (staurosporine, full cell death). […] The EC50 of S10 remained largely similar at 2, 3 and 4 days of incubation. […] The individual isomers (S21-S23) of racemic S10 were evaluated in order to determine the enantiospecific pharmacology of the individual isomers.
For measuring cell viability, cytotoxicity and apoptosis in GSC/fibroblast/mGlia cells were grown in 384-well microtiter plates using procedure described above. […] Cell viability, cytotoxcity and apoptosis were measured using CellTiter-Glo® Luminescent Cell Viability Assay (Promega), CytoTox-Glo Cytotoxicity Assay and […], according to manufacturer's instructions. […] Luminescence was measured using a Victor3 FA (Perkin Elmer) microtiterplate reader and the level of released Caspase 3/7 quantified relative to control using GraphPad Prism (v6.02) software.

[1] = tested on: glioma stem cell line U3013; assay: In vitro cancer cell and CSC viability assay (ATP quantification, CellTiterGlo); assay type: cell-based; conditions: Homo sapiens; 3000 cells/cm2, after 24 hours; read-out: EC50, viability of GSCs
[2] = tested on: U3013M GSCs intracranial tumor; assay: Mouse xenograft experiment, intracranial infusion by osmotic minipump; assay type: in vivo, Nod/SCID mice; conditions: 15 μM, 0.5 μL/hr, one week, started 6 weeks after grafting, vs vehicle
Protocol: The ability of S10 to attenuate tumor progression was next examined in a mouse model for human GBM. Nod/SCID mice received intracranial injections of 100 000 U3013M GSCs and the resulting tumor was allowed to develop for 7 weeks. […] Tumors were highly immunoreactive for human Nestin (hNestin) and human GFAP (hGFAP). S10 (15 μM, 0.5 μL/hr) or vehicle (DMSO) was administered into the site of original cell deposit by an osmotic minipump 6 weeks after cells were grafted. Animals were collected for histological analysis following one week of treatment. […] A massive LAMP1 staining was observed within the tumor cell mass following one week S10 administration, with most or all cells displaying immunoreactivity while mice receiving vehicle were devoid of LAMP1.
GSCs were dissociated with trypsin, resuspended in PBS and kept on ice and the viability of cells were checked using trypan blue before and after the experiment. Surgery in mice was performed using sterile techniques, 6 to 8 week old NOD-SCID mice were anaesthetized using a mixture of isoflurane and oxygen. […] The mice were monitored for weight loss and signs of distress. […]

[3] = tested on: histone H3 trimethylation at lysine 27 (H3K27me3); assay: Western blot of GSC for H3K27me3; assay type: cell-based, human; conditions: GSC treated for 5 min to 26 hours
Protocol: Cell extracts were immunoblotted for phosphor-MKK4 (P-MKK4) and histone H3 trimethylation at lysine 27 (H3K27me3).
Whole-cell extracts were prepared in SDS-buffer (25 mM Tris-HCl, pH 7.5, 1 mM EDTA, protease inhibitor cocktail (Roche), and phosphatase inhibitors [2 mM sodium orthovanadate, 20 mM beta-glycerolphosphate], and 1% SDS). The samples were analysed by western blot as described previously (Aranda et al. (2008) Mol Cell Biol, 28, 5899-5911) with the following antibodies: anti-Histone H3 (Abcam), antitrimethyl(Lys27)-Histone H3 (Millipore) and anti-phospho(S257/Thr261)-SEK1/MKK4 (R&D Systems).

With `OC(c1cc(-c2ccc(Cl)cc2)nc2ccccc12)C1CCCCN1` (racemic) [Compound S10, (2-(4-chlorophenyl)quinolin-4-yl)(piperidin-2-yl)methanol] the pEC50 (human fibroblasts; after 24 hrs) was 4.73, the pEC50 (human fibroblasts; at 96 hours) was 4.64 and the pEC50 [1] was 5.63. The “loss of brain tissue by necrosis” value [2] was “markedly and significantly reduced”, the “tumor infiltration and area of hGFAP and hNestin immunoreactivity” value [2] was “significantly reduced” and the “effect on H3K27me3” value [3] was “lack of inhibition effects”.
